Experiments:
[1] = molecular target: Somatostatin receptor type 4 (Homo sapiens, UniProt P31391); experiment: Inhibition of radiolabeled somatostatin-14 binding to human recombinant SSTR4
[2] = molecular target: Somatostatin receptor type 5 (Homo sapiens, UniProt P35346); experiment: Inhibition of radiolabeled somatostatin-14 binding to human recombinant SSTR5
Sequence of Somatostatin receptor type 5 (P35346 whole entry): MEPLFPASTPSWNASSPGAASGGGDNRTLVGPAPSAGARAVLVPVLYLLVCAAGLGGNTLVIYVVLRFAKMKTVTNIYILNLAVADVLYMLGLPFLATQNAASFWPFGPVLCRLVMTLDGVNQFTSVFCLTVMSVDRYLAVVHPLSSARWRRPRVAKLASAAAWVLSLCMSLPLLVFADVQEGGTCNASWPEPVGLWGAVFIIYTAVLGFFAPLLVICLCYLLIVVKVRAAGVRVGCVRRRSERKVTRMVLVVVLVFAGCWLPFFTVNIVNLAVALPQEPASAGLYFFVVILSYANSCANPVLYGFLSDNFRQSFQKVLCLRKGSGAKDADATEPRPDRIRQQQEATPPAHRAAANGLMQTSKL

Sequence of Somatostatin receptor type 4 (P31391 whole entry): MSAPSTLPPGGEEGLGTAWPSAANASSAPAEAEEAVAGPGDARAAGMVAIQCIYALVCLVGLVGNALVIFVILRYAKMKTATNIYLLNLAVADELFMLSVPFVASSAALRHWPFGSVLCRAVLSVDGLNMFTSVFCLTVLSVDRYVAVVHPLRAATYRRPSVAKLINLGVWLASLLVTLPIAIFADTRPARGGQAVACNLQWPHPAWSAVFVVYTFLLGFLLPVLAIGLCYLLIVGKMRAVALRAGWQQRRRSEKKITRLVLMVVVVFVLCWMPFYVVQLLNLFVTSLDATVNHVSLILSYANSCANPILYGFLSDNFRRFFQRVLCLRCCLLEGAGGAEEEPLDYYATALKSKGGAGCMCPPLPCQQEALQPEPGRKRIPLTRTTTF

Row | Compound | Ki ([1]; read-out: Ki) | Ki [2] | Ki [1] | Ki ([2]; read-out: Ki)
1 | NCCCCCOC[C@@H]1[C@@H](O)[C@H](O)[C@@H](O)CN1CCc1c[nH]c2ccccc12 | 3.2 µM | Not Active |  | 
2 | NCCCCC[C@@H]1[C@@H](O)[C@H](O)[C@@H](O)CN1Cc1ccc2ccccc2c1 |  |  | Not Active | 34 µM
3 | CC(=O)O[C@H]1[C@H](OC(C)=O)[C@@H](CCCCCN)N(Cc2ccc3ccccc3c2)C[C@@H]1OC(C)=O | 5.4 µM |  |  | 7.7 µM
4 | NCCCCC[C@@H]1[C@@H](OCc2ccccc2)[C@H](OCc2ccccc2)[C@@H](OCc2ccccc2)CN1Cc1ccc2ccccc2c1 | 1.9 µM |  |  | 2 µM
